From patent US9867809B2, “Encapsulated active ingredients for controlled enteric release” (Kemin Industries, Inc., priority 2015, dated 2018)

What was measured:
[1] = Butyric acid in intestinal contents and excreta of broilers by gas chromatography; type: in vivo, chicken; conditions: day 28, birds fed the supplemented diet
Experimental: On days 14 and 28, after weighing, 4 birds per cage were harvested. From each of the harvested birds, a 1 inch section from the beginning of the ileum was cut off and flash frozen. The remaining intestinal tract was cut into 3 sections (upper, middle and cecal), the intestinal contents for each section were pooled by cage, and frozen in liquid nitrogen. A sample of excreta was collected by cage and frozen.
The samples of the feed and intestinal contents were analyzed for butyric acid by gas chromatography.

[2] = test system: male Cobb×Cobb 500 broiler chickens; test: Performance trial in broiler chickens; type: in vivo, chicken
Excerpt: A chicken, broiler performance trial was completed to understand if granules with different in-vitro dissolution rates would perform differently in an animal model. […] Therefore two different granules were made, one with a fast dissolution, and one with a slow dissolution. […] The experiment used 72 cages of 10 male Cobb×Cobb 500 broiler chickens. The treatments were replicated in eighteen blocks where the four treatments were randomized within each block. All the treatments contained equal amount of zinc and treatments B, C and D had same amount of butyric acid. The diet given in Tables 5 and 6 was supplemented with the treatments in Table 4. The starter diet was fed day 0 to 14 and the grower diet was fed day 14 to 28. All diets were fed as non-pelleted mash feed. Bird weights and feed consumption by cage were recorded on Days 0, 14, 21, 28.

[3] = after 28 days, supplement in basal diet, 153 ppm zinc

CCCC(=O)[O-].CCCC(=O)[O-].[Zn+2] [ZBA Powder, zinc salt of butyric acid in a molar ratio of 1:2]
butyric acid in the ileal contents [1]: no detectible butyric acid | Avg. Wt. [2, 3]: 1.043 kg | Feed Conversion [2, 3]: 1.589 | Feed Intake [2, 3]: 11.06

O=S(=O)([O-])[O-].[Zn+2] [Zinc Sulfate Powder, Zinc Sulfate, reference compound]
Avg. Wt. ([2]; in vivo): 1.010 kg | Feed Conversion ([2]; in vivo): 1.620 | Feed Intake ([2]; in vivo): 10.93
